Measurements taken from ChEMBL document CHEMBL1155736, “Suberedamines A and B, new bromotyrosine alkaloids from a sponge Suberea species” (J Nat Prod, 2001).
In brackets after ≈: the same amount, converted by molar mass.

Assays:
L1210 = assay: Cytotoxicity against mouse L1210 cells; assay type: functional, cell-based
KB = assay: Cytotoxicity against human KB cells; assay type: functional, cell-based
Micrococcus luteus = assay: Antibacterial activity against Micrococcus luteus; assay type: functional

MIC (Micrococcus luteus) [µg/mL]	Compound	IC50 (L1210) [µg/mL]	IC50 (KB) [µg/mL]
12.6 (≈ 19.8 µM)	COc1ccc(C[C@H](N)C(=O)NCCc2cc(Br)c(OCCCN(C)C)c(Br)c2)cc1Br [SUBEREDAMINE A]	8 (≈ 12.6 µM)	9 (≈ 14.1 µM)
12.6 (≈ 19.4 µM)	CN[C@@H](Cc1ccc(OC)c(Br)c1)C(=O)NCCc1cc(Br)c(OCCCN(C)C)c(Br)c1 [SUBEREDAMINE B]	8.6 (≈ 13.2 µM)	> 10
